Source: US8268754B2, “Substituted dihydroazole compound and pest control agent” (Nissan Chemical Industries, Ltd., priority 2007, dated 2012)

Experiments:
Assay type in all cases: in vivo
Helicoverpa armigera = test: Mortality test for Helicoverpa armigera (cabbage leaf dip); settings: foliar, 144 h, drug solution 100 ppm, 2 instar larva, after 6 days, 25° C., 12 replications
Description: A 10% emulsifiable concentrate of the compound of the present invention (depending on the type of the compound, a 10% wettable powder was subjected to the test) was diluted with water containing a spreader to prepare a drug solution in a concentration of 100 ppm. In this drug solution, a leaf of cabbage was immersed for about 10 seconds and was air-dried and then put into a petri dish. In the petri dish, one 2 instar larva of Helicoverpa armigera per petri dish was released and the petri dish was capped and stored in a thermostatic room of 25° C. The number of killed larvae after 6 days was counted and the mortality was calculated from the same calculation formula as that in Test Example 1. Here, the test was carried out in 12 replications.

Tetranychus urticae = test: Mortality test for Tetranychus urticae (kidney bean leaf spray); settings: 144 h, drug solution 500 ppm, sprayed 2.5 mL per cup, larvae, after 6 days, 25° C.
Description: (§1) In a styrol cup having an inner diameter of 7 cm, a wet filtration paper was laid, and on the paper, a leaf of kidney bean cut out so as to have the same diameter as the inner diameter of the cup was laid, followed by inoculating the leaf with ten larvae of Tetranychus urticae per leaf. A 10% emulsifiable concentrate of the compound of the present invention (depending on the type of the compound, a 10% wettable powder was subjected to the test) was diluted with water containing a spreader to prepare a drug solution in a concentration of 500 ppm. The drug solution was sprayed using a rotary spray tower in an amount of 2.5 mL per styrol cup and the cup was capped and stored in a thermostatic room of 25° C. The number of killed larvae after 6 days was counted and the mortality was calculated from the same calculation formula as that in Test Example 1. Here, the test was carried out in two replications.

Plutella xylostella = test: Mortality test for Plutella xylostella (cabbage leaf dip); settings: foliar, 144 h, drug solution 100 ppm (mark *), 2 instar larvae, after 6 days, 25° C.
Description: A 10% emulsifiable concentrate of the compound of the present invention (depending on the type of the compound, a 10% wettable powder was subjected to the test) was diluted with water containing a spreader to prepare a drug solution in a concentration of […]. In this drug solution, a leaf of cabbage was immersed for about 10 seconds and was air-dried and then put into a petri dish. In the petri dish, five 2 instar larvae of Plutella xylostella per petri dish were released and the petri dish was capped and stored in a thermostatic room of 25° C. The number of killed larvae after 6 days was counted and the mortality was calculated from the following calculation formula: Mortality (%)=(number of killed insects/number of released insects)×100. Here, the test was carried out in two replications.

Bemisia argentifolii = test: Mortality test for Bemisia argentifolii (tomato leaf spray); settings: 144 h, drug solution 500 ppm, sprayed 2.5 mL per cup, eggs on tomato leaf, killed larvae after 6 days, 25° C.
Description: In a styrol cup having an inner diameter of 7 cm, a wet filtration paper was laid, and on the paper, a cut-out leaf of tomato on which Bemisia argentifolii laid eggs (10 eggs/leaf) was laid. A 10% emulsifiable concentrate of the compound of the present invention (depending on the type of the compound, a 10% wettable powder was subjected to the test) was diluted with water containing a spreader to prepare a drug solution in a concentration of 500 ppm. The drug solution was sprayed using a rotary spray tower in an amount of 2.5 mL per styrol cup and the cup was capped and stored in a thermostatic room of 25° C. The number of killed larvae after 6 days was counted and the mortality was calculated from the same calculation formula as that in Test Example 1. Here, the test was carried out in two replications.

Aulacophora femoralis = test: Mortality test for Aulacophora femoralis (cucumber leaf dip); settings: foliar, 144 h, drug solution 500 ppm, 2 instar larvae, after 6 days, 25° C.
Description: A 10% emulsifiable concentrate of the compound of the present invention (depending on the type of the compound, a 10% wettable powder was subjected to the test) was diluted with water containing a spreader to prepare a drug solution in a concentration of 500 ppm. In this drug solution, a leaf of cucumber was immersed for about 10 seconds and was air-dried and then put into a petri dish. In the petri dish, five 2 instar larvae of Aulacophora femoralis per petri dish were released and the petri dish was capped and stored in a thermostatic room of 25° C. The number of killed larvae after 6 days was counted and the mortality was calculated from the same calculation formula as that in Test Example 1. Here, the test was carried out in two replications.

Planococcus kraunhiae = test: Mortality test for Planococcus kraunhiae (kidney bean leaf spray); settings: 144 h, drug solution 500 ppm, sprayed 2.5 mL per cup, 1 instar larvae, after 6 days, 25° C.
Description: as §1, with “ten 1 instar” for “ten”, “Planococcus kraunhiae” for “Tetranychus urticae”

[1] = system: Frankliniella occidentalis; test: Mortality test for Frankliniella occidentalis (kidney bean leaf spray); settings: 48 h, drug solution 500 ppm, sprayed 2.5 mL per cup, 1 instar larvae, after 2 days, 25° C.
Description: as §1, with “ten 1 instar” for “ten”, “Frankliniella occidentalis” for “Tetranychus urticae”, “2” for “6”

Liriomyza trifolii = test: Mortality test for Liriomyza trifolii (kidney bean leaf dip); settings: foliar, 144 h, drug solution 500 ppm, eggs on kidney bean leaf, killed larvae after 6 days, 25° C.
Description: A 10% emulsifiable concentrate of the compound of the present invention (depending on the type of the compound, a 10% wettable powder was subjected to the test) was diluted with water containing a spreader to prepare a drug solution in a concentration of 500 ppm. In this drug solution, a leaf of kidney bean which was cut out to a diameter of 7 cm, on which Liriomyza trifolii laid eggs (10 eggs/leaf) was immersed for about 10 seconds and was air-dried and then laid on a wet filtration paper laid in a styrol cup having an inner diameter of 7 cm. The styrol cup was capped and stored in a thermostatic room of 25° C. The number of killed larvae after 6 days was counted and the mortality was calculated from the same calculation formula as that in Test Example 1. Here, the test was carried out in two replications.

O=C(NCc1ccc(C2=NCC(c3cc(Cl)cc(Cl)c3)(C(F)(F)F)C2)cc1Br)C1CC1 (centres unmarked) [No. 1-001, 2-bromo-N-cyclopropylcarbonyl-4-[4-(3,5-dichlorophenyl)-4-trifluoromethyl-4,5-dihydro-3H-pyrrole-2-yl] benzylamine]
≥ 80%: mortality at 100 ppm (Helicoverpa armigera)

FC(F)(F)C1(c2cc(Cl)cc(Cl)c2)CN=C(c2ccc(-n3cncn3)cc2)C1 (centres unmarked) [No. 3-001, 4-(3,5-dichlorophenyl)-2-[4-(1,2,4-triazole-1-yl)phenyl]-4-trifluoromethyl-4,5-dihydro-3H-pyrrole]
≥ 80%: mortality at 500 ppm (Tetranychus urticae) | mortality at 100 ppm (Plutella xylostella) | mortality at 500 ppm (Bemisia argentifolii) | mortality at 500 ppm (Aulacophora femoralis) | mortality at 500 ppm (Planococcus kraunhiae) | mortality at 500 ppm [1] | mortality at 500 ppm (Liriomyza trifolii)
